Paper PMC10489644, “In Vitro Evaluation of the Potential for Drug Interactions by Salidroside” (Nutrients, 2023)
Where two headings read alike, the source gives them in different places.

Key:
[1] = set-up: method as in PMID 35684130; details: cited from earlier work
CYP2C8 = target: T1, CYP2C8 (Homo sapiens, UniProt P10632); details: microsomes
T1 sequence (P10632 1-490): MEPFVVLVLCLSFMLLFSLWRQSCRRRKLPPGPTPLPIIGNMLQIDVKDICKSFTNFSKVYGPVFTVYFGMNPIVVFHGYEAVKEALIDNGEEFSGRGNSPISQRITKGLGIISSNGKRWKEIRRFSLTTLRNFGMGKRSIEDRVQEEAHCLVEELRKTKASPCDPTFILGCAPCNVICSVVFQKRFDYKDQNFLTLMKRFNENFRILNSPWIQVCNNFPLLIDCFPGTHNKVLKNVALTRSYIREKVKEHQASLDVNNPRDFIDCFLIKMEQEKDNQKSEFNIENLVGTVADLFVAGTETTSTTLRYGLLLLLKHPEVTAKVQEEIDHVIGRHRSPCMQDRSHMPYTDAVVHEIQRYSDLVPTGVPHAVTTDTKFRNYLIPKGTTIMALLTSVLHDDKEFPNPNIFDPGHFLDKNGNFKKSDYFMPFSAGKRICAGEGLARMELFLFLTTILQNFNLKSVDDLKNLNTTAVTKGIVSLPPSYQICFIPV

CYP3A4 = details: for % of Positive Control / Mean Fold Induction: human, 48 h
CYP2C9 = CYP2C9 (Homo sapiens, UniProt P11712); experiment: CYP direct inhibition in human liver microsomes
CYP2C9, sequence (P11712 whole entry): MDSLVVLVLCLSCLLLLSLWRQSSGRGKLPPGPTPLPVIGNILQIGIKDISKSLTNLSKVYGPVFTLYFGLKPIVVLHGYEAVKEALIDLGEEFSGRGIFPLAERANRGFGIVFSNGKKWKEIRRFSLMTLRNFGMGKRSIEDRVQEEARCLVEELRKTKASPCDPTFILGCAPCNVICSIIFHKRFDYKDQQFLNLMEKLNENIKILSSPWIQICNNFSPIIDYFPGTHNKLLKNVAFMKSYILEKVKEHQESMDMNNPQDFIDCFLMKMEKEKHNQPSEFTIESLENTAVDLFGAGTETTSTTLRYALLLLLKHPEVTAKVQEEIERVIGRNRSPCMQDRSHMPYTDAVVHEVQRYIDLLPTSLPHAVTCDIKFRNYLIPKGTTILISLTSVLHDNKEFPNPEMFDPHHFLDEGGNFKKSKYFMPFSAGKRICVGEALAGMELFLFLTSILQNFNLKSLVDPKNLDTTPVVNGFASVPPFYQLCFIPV

recombinant human MAO-A = target: T2, recombinant human MAO-A (Homo sapiens, UniProt P21397); experiment: MAO inhibition, kynuramine oxidation to 4-hydroxyquinoline; assay type: biochemical
T2 sequence (P21397 1-527): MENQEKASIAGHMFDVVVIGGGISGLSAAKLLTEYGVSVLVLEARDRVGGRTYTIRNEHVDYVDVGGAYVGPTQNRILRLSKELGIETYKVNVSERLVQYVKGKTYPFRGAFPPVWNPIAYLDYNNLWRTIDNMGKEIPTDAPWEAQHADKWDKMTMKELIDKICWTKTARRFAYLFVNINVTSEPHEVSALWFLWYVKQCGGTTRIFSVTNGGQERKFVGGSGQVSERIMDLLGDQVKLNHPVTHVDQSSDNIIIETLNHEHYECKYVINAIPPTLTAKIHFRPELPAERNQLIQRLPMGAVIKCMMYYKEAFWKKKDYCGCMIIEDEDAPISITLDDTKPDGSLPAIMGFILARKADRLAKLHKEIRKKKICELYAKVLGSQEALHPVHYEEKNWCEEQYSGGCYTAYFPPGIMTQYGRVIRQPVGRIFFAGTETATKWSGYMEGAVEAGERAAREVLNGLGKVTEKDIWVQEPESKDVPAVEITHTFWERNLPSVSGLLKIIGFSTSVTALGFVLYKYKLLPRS
Method: (§1) A total of 99 µL of substrate working solution was added into 1.1 mL incubation tubes and then 1 µL of the test compound/control working solution or DMSO (vehicle control) was added, mixed well, and pre-incubated at 37 °C for 5 min. MAO-A (0.005 mg/mL) and MAO-B (0.02 mg/mL) were pre-incubated in the working solution at 37 °C for 5 min. A total of 100 µL of pre-incubated MAO-A or MAO-B working solution was added to incubation tubes to start the reaction, mixed well, and incubated at 37 °C for 15 min. […] All samples were centrifuged at 4000 rpm at 4 °C for 15 min, then 100 µL supernatant with 100 µL of water was transferred for LC-MS/MS analysis.
(§2) Enzyme activity (%) = PAR with compound/PAR vehicle × 100.
(§3) The oxidation of kynuramine to 4-hydroxyquinoline generated was the in vitro marker reaction of MAO-A and MAO-B enzymes.

recombinant human MAO-B = target: T3, recombinant human MAO-B (Homo sapiens, UniProt P27338); experiment: as above; assay type: biochemical
T3 construct: purchased Corning
T3 sequence (P27338 1-520): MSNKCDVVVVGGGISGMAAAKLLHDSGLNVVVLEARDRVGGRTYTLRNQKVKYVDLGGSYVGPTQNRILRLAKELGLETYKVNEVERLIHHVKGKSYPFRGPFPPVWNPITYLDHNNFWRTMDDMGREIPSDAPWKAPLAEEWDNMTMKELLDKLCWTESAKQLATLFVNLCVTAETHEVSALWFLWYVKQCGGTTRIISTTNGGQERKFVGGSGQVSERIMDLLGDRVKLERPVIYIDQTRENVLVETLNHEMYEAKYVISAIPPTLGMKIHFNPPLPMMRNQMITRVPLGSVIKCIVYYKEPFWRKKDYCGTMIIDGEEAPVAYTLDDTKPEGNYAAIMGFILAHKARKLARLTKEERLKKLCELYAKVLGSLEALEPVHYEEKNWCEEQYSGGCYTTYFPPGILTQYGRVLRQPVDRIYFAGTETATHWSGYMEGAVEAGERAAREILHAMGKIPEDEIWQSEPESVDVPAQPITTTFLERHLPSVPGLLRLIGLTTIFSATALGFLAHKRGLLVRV
Method: as §1, §2, §3

CYP2C19 [2] = target: T4, CYP2C19 (Homo sapiens, UniProt P33261); experiment: CYP direct inhibition in human liver microsomes
T4 sequence (P33261 whole entry): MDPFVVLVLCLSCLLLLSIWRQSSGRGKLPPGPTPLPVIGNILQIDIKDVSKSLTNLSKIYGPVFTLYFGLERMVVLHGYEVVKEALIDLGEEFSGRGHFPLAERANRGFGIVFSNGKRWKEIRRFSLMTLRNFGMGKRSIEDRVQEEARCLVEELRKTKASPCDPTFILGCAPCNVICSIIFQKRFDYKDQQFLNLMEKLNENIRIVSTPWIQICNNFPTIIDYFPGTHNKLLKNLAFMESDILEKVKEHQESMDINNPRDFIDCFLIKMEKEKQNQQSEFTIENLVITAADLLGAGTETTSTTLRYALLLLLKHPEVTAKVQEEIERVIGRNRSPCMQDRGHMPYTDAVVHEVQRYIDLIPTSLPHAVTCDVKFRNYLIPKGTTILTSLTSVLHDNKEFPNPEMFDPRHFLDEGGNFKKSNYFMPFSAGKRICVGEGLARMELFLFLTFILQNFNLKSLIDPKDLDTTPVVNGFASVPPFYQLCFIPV

CYP2C19 [3] = target: T4, CYP2C19; experiment: Time-dependent inhibition (IC50 shift) in human liver microsomes

SMILES: OC[C@H]1O[C@@H](OCCc2ccc(O)cc2)[C@H](O)[C@@H](O)[C@@H]1O [Salidroside]
- genotoxicity [1]: not genotoxic
- IC50 Shift (CYP2C8): no shift
- Mean Enzyme Activity (CYP3A4; CYP3A4, Lot# SNP, 0.1 µM, N = 3): 1.82 pmol/10^6 cells/min
- % of Positive Control (CYP3A4; 0.1 µM): −15%
- Mean Fold Induction (CYP3A4; 0.1 µM): 2.07 fold
- % of Positive Control (CYP3A4; 1 µM): −26%
- Mean Fold Induction (CYP3A4; 1 µM): 1.55 fold
- % of Positive Control (CYP3A4; 10 µM): −14%
- Mean Fold Induction (CYP3A4; 10 µM): 2.13 fold
- IC50 (CYP2C9): > 50 µM
- IC50 (recombinant human MAO-A): > 50 µM
- inhibition at 50 µM (recombinant human MAO-A; at 50 µM, read-out: maximum % inhibition of MAO-A): 13.3%
- inhibition at 50 µM (recombinant human MAO-B; at 50 µM, read-out: maximum % inhibition of MAO-B): 22.5%
- IC50 (recombinant human MAO-B; substrate kynuramine (20 µM), mean of N = 2): > 50 µM
- IC50 (CYP2C19 [2]): > 50 µM
- IC50 (CYP2C19 [3]): > 50 µM
